From ChEMBL document CHEMBL3526017, “Predicting the drug interaction potential of AMG 853, a dual antagonist of the D-prostanoid and chemoattractant receptor-homologous molecule expressed on T helper 2 cells receptors” (Drug Metab Dispos, 2012)

Experiments:
[1] = target: T1, UDP-glucuronosyltransferase 1A1 (Homo sapiens, UniProt P22309); assay: Drug metabolism assessed as human recombinant UGT1A1-mediated compound formation treated with AMG 853 at 10 uM after 30 mins by LC-MS/MS analysis; type: ADME; conditions: recombinant enzyme, 0.5 h
T1 sequence (P22309 whole entry): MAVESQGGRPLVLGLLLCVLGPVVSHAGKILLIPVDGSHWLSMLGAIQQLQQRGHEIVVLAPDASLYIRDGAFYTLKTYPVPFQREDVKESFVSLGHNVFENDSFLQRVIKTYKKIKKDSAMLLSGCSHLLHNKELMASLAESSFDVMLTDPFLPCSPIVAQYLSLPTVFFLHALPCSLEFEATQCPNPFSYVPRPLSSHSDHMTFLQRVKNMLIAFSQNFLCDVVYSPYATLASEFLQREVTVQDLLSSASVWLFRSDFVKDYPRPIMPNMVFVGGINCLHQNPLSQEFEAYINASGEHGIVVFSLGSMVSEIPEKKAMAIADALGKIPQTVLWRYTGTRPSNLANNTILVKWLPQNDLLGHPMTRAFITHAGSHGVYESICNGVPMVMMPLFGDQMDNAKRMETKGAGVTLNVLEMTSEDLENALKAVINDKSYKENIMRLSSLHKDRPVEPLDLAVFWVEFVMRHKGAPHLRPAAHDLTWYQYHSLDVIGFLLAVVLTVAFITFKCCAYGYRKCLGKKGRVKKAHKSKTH

[2] = target: T2, UDP-glucuronosyltransferase 2B7 (Homo sapiens, UniProt P16662); assay: Drug metabolism assessed as human recombinant UGT2B7-mediated compound formation treated with AMG 853 after 45 mins by LC-MS/MS analysis in presence of UDPGA; type: ADME; conditions: recombinant enzyme, 0.75 h
T2 sequence (P16662 whole entry): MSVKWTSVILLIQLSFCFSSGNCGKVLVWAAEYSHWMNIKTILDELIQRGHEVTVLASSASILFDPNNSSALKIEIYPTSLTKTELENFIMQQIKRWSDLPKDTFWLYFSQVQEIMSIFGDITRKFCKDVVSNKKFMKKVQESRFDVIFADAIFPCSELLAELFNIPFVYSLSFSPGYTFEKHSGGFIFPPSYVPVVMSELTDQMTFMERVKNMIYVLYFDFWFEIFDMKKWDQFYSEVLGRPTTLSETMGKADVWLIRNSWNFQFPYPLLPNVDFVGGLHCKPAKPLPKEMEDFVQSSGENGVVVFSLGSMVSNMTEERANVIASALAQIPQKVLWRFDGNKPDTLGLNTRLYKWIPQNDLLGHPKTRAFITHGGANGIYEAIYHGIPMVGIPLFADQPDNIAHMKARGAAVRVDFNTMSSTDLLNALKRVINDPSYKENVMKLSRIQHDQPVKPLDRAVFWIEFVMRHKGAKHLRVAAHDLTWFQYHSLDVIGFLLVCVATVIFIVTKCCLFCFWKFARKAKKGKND

[3] = target: T2, UDP-glucuronosyltransferase 2B7; assay: Drug metabolism assessed as human recombinant UGT2B7-mediated compound formation treated with AMG 853 at 10 uM after 30 mins by LC-MS/MS analysis; type: ADME; conditions: recombinant enzyme, 0.5 h
[4] = target: T1, UDP-glucuronosyltransferase 1A1; assay: Drug metabolism assessed as human recombinant UGT1A1-mediated compound formation treated with AMG 853 after 45 mins by LC-MS/MS analysis in presence of UDPGA; type: ADME; conditions: recombinant enzyme, 0.75 h
[5] = Drug metabolism in human liver microsomes assessed as […]-mediated (2S,3S,4S,5R,6S)-6-(2-(4-(4-(tert-butylcarbamoyl)-2-(2-chloro-4-cyclopropylphenylsulfonamido)phenoxy)-5-chloro-2-fluorophenyl)acetoxy)-3,4,5-trihydroxytetrahydro-2H-pyran-2-carboxylic acid formation after 15 mins by LC-MS/MS analysis in presence of UDPGA and NADPH; type: ADME; conditions: 0.25 h
Cytochrome P450 2J2 = target: T3, Cytochrome P450 2J2 (Homo sapiens, UniProt P51589); assay: Drug metabolism assessed as recombinant CYP2J2 (unknown origin)-mediated 2-(4-(4-(tert-butylcarbamoyl)-2-(2-chloro-4-(1-hydroxycyclopropyl)phenylsulfonamido)phenoxy)-5-chloro-2-fluorophenyl)acetic acid formation at 10 uM after 30 mins by LC-MS/MS analysis; type: ADME; conditions: recombinant enzyme, 0.5 h
T3 sequence (P51589 whole entry): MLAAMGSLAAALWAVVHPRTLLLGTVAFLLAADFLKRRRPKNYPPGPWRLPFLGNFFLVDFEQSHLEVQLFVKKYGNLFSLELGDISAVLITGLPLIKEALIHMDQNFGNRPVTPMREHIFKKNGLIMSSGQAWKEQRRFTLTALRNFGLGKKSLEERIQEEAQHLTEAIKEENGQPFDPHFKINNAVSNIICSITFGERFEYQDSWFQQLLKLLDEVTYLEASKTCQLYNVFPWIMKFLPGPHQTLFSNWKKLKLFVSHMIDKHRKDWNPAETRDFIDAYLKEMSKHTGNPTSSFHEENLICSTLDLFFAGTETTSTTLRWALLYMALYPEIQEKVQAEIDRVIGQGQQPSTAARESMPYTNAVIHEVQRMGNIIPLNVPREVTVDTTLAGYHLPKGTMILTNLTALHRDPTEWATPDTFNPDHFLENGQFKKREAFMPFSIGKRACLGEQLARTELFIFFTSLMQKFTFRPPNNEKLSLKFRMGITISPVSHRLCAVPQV

Cytochrome P450 3A7 = Cytochrome P450 3A7 (Homo sapiens, UniProt P24462); assay: Drug metabolism assessed as recombinant CYP3A7 (unknown origin)-mediated 2-(4-(4-(tert-butylcarbamoyl)-2-(2-chloro-4-(1-hydroxycyclopropyl)phenylsulfonamido)phenoxy)-5-chloro-2-fluorophenyl)acetic acid formation at 10 uM after 30 mins by LC-MS/MS analysis; type: ADME; conditions: recombinant enzyme, 0.5 h
Sequence of Cytochrome P450 3A7 (P24462 whole entry): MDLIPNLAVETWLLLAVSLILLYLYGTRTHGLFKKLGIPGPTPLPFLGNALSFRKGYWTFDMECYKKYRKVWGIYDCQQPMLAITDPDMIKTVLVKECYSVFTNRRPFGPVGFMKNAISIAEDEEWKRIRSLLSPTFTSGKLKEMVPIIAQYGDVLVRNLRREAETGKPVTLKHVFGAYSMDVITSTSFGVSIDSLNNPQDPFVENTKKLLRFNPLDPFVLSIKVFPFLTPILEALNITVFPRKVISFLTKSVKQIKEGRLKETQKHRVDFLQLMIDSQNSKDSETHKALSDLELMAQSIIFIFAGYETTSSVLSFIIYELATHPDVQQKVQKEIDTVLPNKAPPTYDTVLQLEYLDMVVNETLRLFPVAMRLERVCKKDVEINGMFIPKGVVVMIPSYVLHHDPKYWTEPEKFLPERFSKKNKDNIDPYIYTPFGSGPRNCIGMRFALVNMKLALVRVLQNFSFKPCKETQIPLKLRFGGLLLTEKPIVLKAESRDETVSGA

[6] = target: UDP-glucuronosyltransferase 1A7 (Homo sapiens, UniProt Q9HAW7); assay: (§1) Drug metabolism assessed as human recombinant UGT1A7-mediated (2S,3S,4S,5R,6S)-6-(2-(4-(4-(tert-butylcarbamoyl)-2-(2-chloro-4-cyclopropylphenylsulfonamido)phenoxy)-5-chloro-2-fluorophenyl)acetoxy)-3,4,5-trihydroxytetrahydro-2H-pyran-2-carboxylic acid formation at 10 uM after 30 mins by LC-MS/MS analysis; type: ADME; conditions: recombinant enzyme, 0.5 h
Sequence of UDP-glucuronosyltransferase 1A7 (Q9HAW7 whole entry): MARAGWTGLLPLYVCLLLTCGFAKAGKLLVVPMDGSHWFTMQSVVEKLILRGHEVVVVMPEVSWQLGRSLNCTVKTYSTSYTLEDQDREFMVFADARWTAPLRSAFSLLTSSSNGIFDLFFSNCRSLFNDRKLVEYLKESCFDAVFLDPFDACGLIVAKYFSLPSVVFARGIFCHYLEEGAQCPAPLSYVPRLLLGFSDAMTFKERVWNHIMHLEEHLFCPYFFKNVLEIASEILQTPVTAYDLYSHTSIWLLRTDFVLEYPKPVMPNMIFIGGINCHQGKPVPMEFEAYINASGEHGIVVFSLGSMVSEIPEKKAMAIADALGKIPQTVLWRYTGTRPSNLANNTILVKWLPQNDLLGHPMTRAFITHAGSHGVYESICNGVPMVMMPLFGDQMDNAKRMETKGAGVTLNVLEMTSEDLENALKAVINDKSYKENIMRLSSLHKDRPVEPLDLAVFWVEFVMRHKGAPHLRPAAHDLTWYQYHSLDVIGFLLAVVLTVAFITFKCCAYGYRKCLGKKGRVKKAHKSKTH

[7] = target: UDP-glucuronosyltransferase 1A4 (Homo sapiens, UniProt P22310); assay: as §1, with “UGT1A4-mediated” for “UGT1A7-mediated”; type: ADME; conditions: recombinant enzyme, 0.5 h
Sequence of UDP-glucuronosyltransferase 1A4 (P22310 whole entry): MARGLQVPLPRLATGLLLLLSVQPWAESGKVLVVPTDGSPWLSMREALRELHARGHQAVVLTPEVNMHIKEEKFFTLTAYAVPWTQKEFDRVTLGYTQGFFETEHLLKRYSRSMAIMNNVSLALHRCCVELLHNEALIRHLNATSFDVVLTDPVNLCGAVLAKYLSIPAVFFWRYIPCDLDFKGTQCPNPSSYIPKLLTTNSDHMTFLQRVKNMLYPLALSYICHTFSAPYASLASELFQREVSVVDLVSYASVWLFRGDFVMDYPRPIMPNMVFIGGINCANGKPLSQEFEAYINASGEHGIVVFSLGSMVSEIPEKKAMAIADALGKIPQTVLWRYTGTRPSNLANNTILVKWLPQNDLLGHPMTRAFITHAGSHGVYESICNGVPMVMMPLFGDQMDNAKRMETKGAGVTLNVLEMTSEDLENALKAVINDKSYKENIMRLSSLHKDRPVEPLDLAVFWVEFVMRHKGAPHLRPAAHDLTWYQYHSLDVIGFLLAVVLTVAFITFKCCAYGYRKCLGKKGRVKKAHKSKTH

CYP2B6 = assay: Upregulation of CYP2B6 mRNA expression in human hepatocytes at 0.3 to 30 uM treated every 24 hrs for 2 days measured on day 5 relative to control; type: ADME, cell-based, Hepatocyte; conditions: read-out: FC
[8] = target: T2, UDP-glucuronosyltransferase 2B7; assay: as §1, with “UGT2B7-mediated” for “UGT1A7-mediated”; type: ADME; conditions: recombinant enzyme, 0.5 h
Liver microsome = assay: Drug metabolism in human liver microsomes assessed as 2-(4-(4-(tert-butylcarbamoyl)-2-(2-chloro-4-(1-hydroxycyclopropyl)phenylsulfonamido)phenoxy)-5-chloro-2-fluorophenyl)acetic acid formation at 2 uM after 60 mins by LC-MS/MS analysis in presence of ketoconazole; type: ADME; conditions: 1 h
[9] = Cmax in healthy human at 50 mg, po in presence of ketoconazole; type: ADME, organism-based; parameters: dose 50 mg, route oral; conditions: in vivo
CYP2C9 = assay: Upregulation of CYP2C9 mRNA expression in human hepatocytes at 0.3 to 30 uM treated every 24 hrs for 2 days measured on day 5 relative to control; type: ADME, cell-based, Hepatocyte; conditions: read-out: FC

SMILES	Drug metabolism [1]	S50 [2]	Vmax [2]	Drug metabolism [3]	S50 [4]	Vmax [4]	Drug metabolism [5]	Drug metabolism (Cytochrome P450 2J2)	Drug metabolism (Cytochrome P450 3A7)	Drug metabolism [6]	Drug metabolism [7]	fold induction at 48 h, up to 30 µM (CYP2B6)	Drug metabolism [8]	Drug metabolism (Liver microsome)	Cmax [9]	fold induction at 48 h, up to 30 µM (CYP2C9)
CC(C)(C)NC(=O)c1ccc(Oc2cc(F)c(CC(=O)O[C@@H]3O[C@H](C(=O)O)[C@@H](O)[C@H](O)[C@H]3O)cc2Cl)c(NS(=O)(=O)c2ccc(C3CC3)cc2Cl)c1	metabolite_detected	183.4 µM	13.6 pmol/min/mg	metabolite_detected	218.4 µM	3.45 pmol/min/mg										
CC(C)(C)NC(=O)c1ccc(Oc2cc(F)c(CC(=O)O)cc2Cl)c(NS(=O)(=O)c2ccc(C3CC3)cc2Cl)c1 [VIDUPIPRANT]							metabolite_not_detected	metabolite_detected	metabolite_detected	metabolite_not_detected	metabolite_detected	1.7	metabolite_detected	metabolite_not_detected	270 ng/mL	1.7
